Laboratory results: patent US7816325B2, “Secondary binding site of dipeptidyl peptidase IV (DP IV)” (OSI Pharmaceuticals, Inc., priority 2003, dated 2010)
Where two headings read alike, the source gives them in different places. Blank lines part the entries; values can stand above or below the molecule they belong to. Where a SMILES comes first, the peptide text is derived from it. [ ]: non-standard residue; d: D form. The star is where a group is joined. AMC = Cc1cc(=O)oc2cc(N*)ccc12

Columns and labels:
DP IV [1] = experiment: DP IV-catalyzed hydrolysis, determination of Km; assay type: biochemical
[2] = molecular target: T1, recombinant human DP IV, wild type (Homo sapiens, UniProt P27487); experiment: Kinetic characterization of substrate hydrolysis (Km, kcat); assay type: biochemical; conditions: rh wt DP IV
T1 construct: His6 (N); made in house; host or cells: Pichia pastoris X-33 (vector pPICαC, secreted into the medium)

[3] = molecular target: T2, porcine kidney DP IV, wild type (Sus scrofa, UniProt P22411); experiment: Kinetic characterization of substrate hydrolysis (Km); assay type: biochemical; conditions: p wt DP IV
T2 construct: the DP IV-protein was released from the membrane by an 18 h autolysis step at 30° C; from tissue; host or cells: porcine kidney cortex

[4] = molecular target: T1, recombinant human DP IV, wild type; experiment: Ki in competition to standard substrate GP-4NA; assay type: biochemical; conditions: rh wt DP IV, competition to GP-4NA
Description: (§1) In order to measure the inhibition constant Ki a photometric assay was used The peptides were measured as competitors of the standard substrate GP-4-Nitroanilide. Three different substrate concentrations (0.4 mM to 0.05 mM) were combined with 8 different competitor concentrations (0.5 mM to 2 μM). […] Experiments were carried out under standard conditions: 30° C. in pH 7.6 40 mM HEPES (Sigma-Aldrich) buffer. Nitroaniline production was monitored using a HTS 7000+ microplate reader (PerkinElmer, Überlingen, Germany).

[5] = molecular target: T2, porcine kidney DP IV, wild type; experiment: Ki in competition to standard substrate GP-4NA; assay type: biochemical; conditions: p wt DP IV; competition to GP-4NA
Description: (§2) In order to measure the inhibition constant Ki a photometric assay was used The peptides were measured as competitors of the standard substrate GP-4-Nitroanilide. Three different substrate concentrations (0.4 mM to 0.05 mM) were combined with 8 different competitor concentrations (0.5 mM to 2 μM). The reaction was started by addition of 3.5 nM DP IV. Experiments were carried out under standard conditions: 30° C. in pH 7.6 40 mM HEPES (Sigma-Aldrich) buffer. Nitroaniline production was monitored using a HTS 7000+ microplate reader (PerkinElmer, Überlingen, Germany). The Ki-values were calculated via non-linear regression using the enzyme kinetic program Grafit 4.016 (Erithacus Ltd, UK).

[6] = molecular target: T3, recombinant human DP IV, mutation R560A (Homo sapiens, UniProt P27487, R560A); experiment: Ki in competition to standard substrate GP-4NA; assay type: biochemical; design: His6 (N); made in house; host or cells: Pichia pastoris X-33 (vector pPICαC, secreted); conditions: mu 15 DP IV (R560A), competition to GP-4NA
Description: as §1

[7] = molecular target: T4, recombinant human DP IV, mutation W629A (Homo sapiens, UniProt P27487, W629A); experiment: Ki in competition to standard substrate GP-4NA; assay type: biochemical; design: His6 (N); made in house; host or cells: Pichia pastoris X-33 (vector pPICαC, secreted); conditions: mu 16 DP IV (W629A), competition to GP-4NA
Description: as §1

[8] = DP IV-catalyzed truncation of peptides, half-life by MALDI-TOF MS; assay type: biochemical
Description: (§3) In particular, the capability of purified DP IV from human, from porcine kidney, of recombinant human DP IV and the DP IV activity of the human serum to truncate the peptides of the GRF family were analyzed.
(§4) 250 single laser-shot spectra were accumulated.

DP IV [9] = experiment: as above; assay type: biochemical; conditions: for hydrolysis by DP IV: GIP-fragments of different chain lengths
Description: as §3, §4

[10] = molecular target: T3, recombinant human DP IV, mutation R560A; experiment: Kinetic characterization of substrate hydrolysis (Km, kcat); conditions: mu 15 DP IV (R560A)
[11] = molecular target: T4, recombinant human DP IV, mutation W629A; experiment: as above; conditions: mu 16 DP IV (W629A)
[12] = Stability in biological fluids (human serum or plasma)
DP IV [13] = experiment: Photometric Ki assay, competition with standard substrate GP-4-Nitroanilide; assay type: biochemical; conditions: read-out: Ki, influence on GP-4-Nitroanilide hydrolysis
Description: as §2
For a reversible competitive inhibition is to assumed: […]

DP IV [14] = experiment: DP IV-catalyzed peptide truncation test with or without preincubation with effector peptide; assay type: biochemical; conditions: for affinity of larger oligopeptides such as GIP, VIP, glucagon / binding and hydrolysis of small dipeptide substrates: DP IV preincubated with the peptide
Description: as §4
In order to investigate directly the influence of the test compounds TFTSDY, TFTDDY and H-Ser-D-Glu-Thr-Gly-D-Val-D-Lys-D-Val-OH on the DP IV-catalyzed peptide hydrolysis the MALDI-TOF assay was used.
As described before (determination of t1/2) DP IV and the test compounds were preincubated and the reaction was started by adding the enzyme/hexapeptide mixture to substrate/buffer mix. The control reaction mixture consisted of buffer, enzyme and substrate. From the curves of the first order exponential the initial rate (vi) for the control and the reversible inhibited reaction was calculated.

[15] = preincubation with 160 μM TFTSDY

T3 sequence (P27487 37-766 R560A): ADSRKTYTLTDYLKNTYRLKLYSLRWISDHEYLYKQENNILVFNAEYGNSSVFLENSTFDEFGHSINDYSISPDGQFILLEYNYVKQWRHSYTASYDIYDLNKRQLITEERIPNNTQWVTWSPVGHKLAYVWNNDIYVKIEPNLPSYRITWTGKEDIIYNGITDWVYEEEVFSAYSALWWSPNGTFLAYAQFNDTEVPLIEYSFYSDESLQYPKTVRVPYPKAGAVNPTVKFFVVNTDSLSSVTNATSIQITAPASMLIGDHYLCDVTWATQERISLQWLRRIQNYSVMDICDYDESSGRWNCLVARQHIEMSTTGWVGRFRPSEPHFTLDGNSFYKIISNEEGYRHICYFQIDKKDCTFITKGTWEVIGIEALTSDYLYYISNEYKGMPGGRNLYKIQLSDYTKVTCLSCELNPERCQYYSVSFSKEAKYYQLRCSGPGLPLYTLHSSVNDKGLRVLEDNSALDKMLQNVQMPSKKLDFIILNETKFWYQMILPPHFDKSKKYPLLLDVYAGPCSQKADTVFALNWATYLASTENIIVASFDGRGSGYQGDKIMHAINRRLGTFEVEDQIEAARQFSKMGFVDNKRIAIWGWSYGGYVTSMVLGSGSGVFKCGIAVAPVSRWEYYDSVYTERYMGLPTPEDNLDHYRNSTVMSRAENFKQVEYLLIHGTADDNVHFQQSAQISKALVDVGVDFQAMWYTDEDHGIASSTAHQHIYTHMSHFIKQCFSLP
T1 sequence (P27487 37-766): as the sequence (P27487 37-766 R560A) above, with A524R counted along it
T4 sequence (P27487 37-766 W629A): as the sequence (P27487 37-766 R560A) above, with A524R, W593A counted along it
T2 sequence (P22411 38-766 limits assumed): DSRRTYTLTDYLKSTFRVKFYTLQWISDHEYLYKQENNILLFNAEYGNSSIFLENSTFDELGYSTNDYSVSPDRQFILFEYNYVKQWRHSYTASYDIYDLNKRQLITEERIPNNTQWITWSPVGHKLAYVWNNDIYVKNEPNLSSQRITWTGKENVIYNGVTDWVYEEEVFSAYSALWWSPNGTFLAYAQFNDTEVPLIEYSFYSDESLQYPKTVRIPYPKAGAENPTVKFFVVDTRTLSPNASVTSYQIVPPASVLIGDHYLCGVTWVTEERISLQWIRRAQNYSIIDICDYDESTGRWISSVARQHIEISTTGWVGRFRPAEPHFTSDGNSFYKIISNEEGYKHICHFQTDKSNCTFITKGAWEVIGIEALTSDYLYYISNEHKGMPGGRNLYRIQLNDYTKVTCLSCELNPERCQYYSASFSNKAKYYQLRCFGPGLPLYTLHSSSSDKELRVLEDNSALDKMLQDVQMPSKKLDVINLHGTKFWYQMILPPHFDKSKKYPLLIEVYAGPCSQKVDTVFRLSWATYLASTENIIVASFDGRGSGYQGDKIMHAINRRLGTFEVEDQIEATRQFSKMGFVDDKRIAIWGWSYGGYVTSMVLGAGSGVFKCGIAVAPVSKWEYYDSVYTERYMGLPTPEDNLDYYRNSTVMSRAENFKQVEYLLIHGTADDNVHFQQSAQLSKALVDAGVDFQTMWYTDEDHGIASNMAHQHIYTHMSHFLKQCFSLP

Molecule: [Gly]^2-glucagon: glucagon analog
Km (DP IV [1]): 22 µM

Km [2]: 42.6 µM
Km [3]: 59.8 µM
Ki ([4]; read-out: Ki): 65.8 nM
Ki [5]: 72.9 nM
Ki ([6]; read-out: Ki): 68.1 nM
Ki ([7]; read-out: Ki): 65.7 nM
Molecule: CC(C)C[C@H](N)C(=O)N1CCSC1 [Leu-Thia-Fum]

Molecule: C[C@@H](O)[C@H](NC(=O)CNC(=O)[C@H](CCC(=O)O)NC(=O)[C@H](CO)NC(=O)[C@@H](N)Cc1ccc(O)cc1)C(=O)N[C@@H](Cc1ccccc1)C(=O)O [S^2GIP1-6] (H-YSEGTF-OH; N-terminus and C-terminus assumed)
half-life [8]: 1.32 h
hydrolysis by DP IV (DP IV [9]): truncated
Ki [4]: no inhibition
Ki [6]: no inhibition
Ki [7]: no inhibition

Molecule: G^2GIP1-6: GIP-fragment analog (YAEGTF)
Truncation half life (DP IV [9]): no degradation
hydrolysis by DP IV (DP IV [9]): not hydrolyzed

Molecule: Glucagon
Km (DP IV [1]): 3.8 µM

half-life ([8]; bioactive peptides which are substrates for DP IV, read-out: Truncation half life): < 0.125 h
Molecule: C[C@H](NC(=O)[C@@H](N)Cc1ccc(O)cc1)C(=O)N[C@@H](CCC(=O)O)C(=O)NCC(=O)N[C@H](C(=O)N[C@@H](Cc1ccccc1)C(=O)O)[C@@H](C)O [GIP1-6, YAEGTF] (H-YAEGTF-OH; N-terminus and C-terminus assumed)

Ki [4]: no inhibition
Ki [6]: no inhibition
Ki [7]: no inhibition
Molecule: V^2GIP(1-4): GIP-fragment analog, test compound of Table 5 (YAEGTF)

Km [2]: 35.3 µM
kcat [2]: 1.66e+06 s⁻¹
Km [10]: 46.6 µM
kcat [10]: 1e+06 s⁻¹
Km [11]: 50.2 µM
kcat [11]: 1.44e+06 s⁻¹
Molecule: Cc1cc(=O)oc2cc(NC(=O)[C@@H]3CCCN3C(=O)CN)ccc12 [Gly-Pro-AMC, H-Gly-Pro-AMC] (H-Gly-Pro-{AMC})

Km (DP IV [1]): 68 µM
Molecule: His^1-Ser^2-NPY: NPY analog, full-length substrate

Km [2]: 440 µM
Km [10]: Not hydrolyzed
Km [11]: Not hydrolyzed
Molecule: Cc1cc(=O)oc2cc(NC(=O)[C@H](CO)NC(=O)CN)ccc12 [Gly-Ser-AMC] (H-Gly-Ser-{AMC})

Km (DP IV [1]): 410 µM
Molecule: Cc1cc(=O)oc2cc(NC(=O)CNC(=O)[C@@H](N)Cc3c[nH]cn3)ccc12 [His-Gly-AMC] (H-His-Gly-{AMC})

Molecule: C[C@@H](O)[C@H](N)C(=O)N[C@@H](Cc1ccccc1)C(=O)N[C@H](C(=O)N[C@@H](CC(=O)O)C(=O)N[C@@H](CC(=O)O)C(=O)N[C@@H](Cc1ccc(O)cc1)C(=O)O)[C@@H](C)O [TFTDDY] (H-TFTDDY-OH)
stability in biological fluids [12]: instable

Molecule: V^2GIP1-6: GIP-fragment analog (YAEGTF)
Truncation half life (DP IV [9]): no degradation
hydrolysis by DP IV (DP IV [9]): not hydrolyzed

Molecule: C[C@@H](O)[C@H](N)C(=O)N[C@@H](Cc1ccccc1)C(=O)N[C@H](C(=O)N[C@@H](CO)C(=O)N[C@@H](CC(=O)O)C(=O)N[C@@H](Cc1ccc(O)cc1)C(=O)O)[C@@H](C)O [TFTSDY] (H-TFTSDY-OH; N-terminus and C-terminus assumed)
Ki (DP IV [13]): 710000 nM
Ki [4]: no inhibition
half-lifes of GIP, Glucagon, PACAP-27 and PACAP-38 (DP IV [14]; DP IV (porcine and recombinant human) catalyzed peptide truncation test, FIG. 16): prolongation
affinity of larger oligopeptides such as GIP, VIP, glucagon (DP IV [14]): considerably reduced
binding and hydrolysis of small dipeptide substrates (DP IV [14]): only slightly influenced
half-lives of GIP and glucagon in presence of DP IV (DP IV [14]; [15]): prolonged
incubation of Rantes1-15 and DP IV with or without the hexapeptide (DP IV [14]; [15]): No differences
stability in biological fluids [12]: instable
Ki [6]: no inhibition
Ki [7]: no inhibition

Ki ([4]; read-out: Ki): 35.1 nM
Molecule: C[C@H](NC(=O)[C@@H](N)Cc1ccc(O)cc1)C(=O)N[C@@H](CCC(=O)O)C(=O)N[C@@H](CO)C(=O)N[C@H](C(=O)N[C@@H](Cc1ccccc1)C(N)=O)[C@@H](C)O [YAESTF amide] (H-YAESTF-NH2; N-terminus assumed)

binding and hydrolysis of small dipeptide substrates (DP IV [14]): only slightly influenced
stability in biological fluids [12]: not enzymatically degraded
Molecule: CC(C)[C@@H](NC(=O)[C@@H](CCCCN)NC(=O)[C@H](NC(=O)CNC(=O)[C@@H](NC(=O)[C@@H](CCC(=O)O)NC(=O)[C@@H](N)CO)[C@@H](C)O)C(C)C)C(=O)O [H-Ser-D-Glu-Thr-Gly-D-Val-D-Lys-D-Val-OH] (H-S[dE]TG[dV][dK][dV]-OH)
affinity of larger oligopeptides such as GIP, VIP, glucagon (DP IV [14]): considerably reduced
improving the substrate specificity of DP IV (DP IV [14]; compared to control experiments without the heptapeptide): very effective
